Experimental data published in US7824872B2, “Pharmaceutical agents” (Theravalues Corporation, priority 2003, dated 2010).
Like-named read-outs stand apart in the source and are kept apart here. Where a SMILES comes first, the peptide text is derived from it. [ ]: non-standard residue; d: D form. Nle = CCCC[C@H](N)C(=O)O

Experiments:
Type in all cases: cell-based
[1] = tested on: PCI-43 cells; experiment: Number of live cells after 48 hours of treatment with anticancer agents (IC50); conditions: concentration halving the number of live cells
Experimental: (§1) The sensitivity of solid cancer cells to anticancer agents under low and normal oxygen partial pressures was investigated. Three types of solid pancreatic cancer cell lines (PCI-35 cells, KMP-4 cells, and PCI-43 cells) were used as the cells. For each type of cell, 2×10^3 cells were cultured for six hours in the presence of 50 μg/mL of cisplatin under low oxygen partial pressure (1% oxygen, 5% carbondioxide; hereinafter, the same values in the Examples) or normal oxygen partial pressure (20% oxygen, 5% carbondioxide; hereinafter, the same values in the Examples). After culturing, the cells were washed twice with physiological phosphate buffer (pH7.4) to prepare samples. Dulbecco's Modified Eagle's Medium/F12 was used as the medium for culturing (hereinafter, unless particularly specified, use of the same medium is assumed).
Using gemcitabine, adriamycin, and cisplatin, and using PCI-43 cells, measurements were made as in Example 1. The concentrations of gemcitabine and adriamycin were 0.1 to 1 μmol and 0.1 to 5 μmol, respectively. IC50 values were calculated from the measured results, as shown below.
The number of live cells was determined after 48 hours of treatment with various concentrations of anticancer agents, and the concentrations of anticancer agents needed to half the number of live cells present when the various anticancer agents were not added were defined as IC50 values.

[2] = tested on: Pim-1; experiment: Western blotting of Pim-1 in cells cultured with a proteasome inhibitor; conditions: PCI-43 cells, normoxia, 50 μM ALLN, 6 and 12 hours
Experimental: The cells used were HCT116 (colon cancer cell line), HePG2 (liver cancer cell line), KMP-4 (pancreatic cancer cell line), PCI-10 (pancreatic cancer cell line), PCI-35 (pancreatic cancer cell line), and PCI-43 (pancreatic cancer cell line). Each type of cell was cultured for 16 hours under hypoxia (1% oxygen, 5% carbondioxide), or normoxia (20% oxygen, 5% carbondioxide). RNA was extracted from the cultured cells using Trizol reagent, and proteins were extracted from the cultured cells using 1% NP-40 lysis buffer ([…] pH7.5, […], 2 μM EDTA, 1 μM EGTA, 50 μM NaF, 1 μM Na3VO4, 1 mM PMSF).
Proteins were detected by Western blotting. More specifically, the above-mentioned samples were electrophoresed through 12% polyacrylamide gels, and then blotted onto nitrocellulose membranes. The membranes were blocked with blocking buffer (5% skim milk, in physiological Tween-phosphate buffer), reacted with anti-Pim-1 antibody for one hour, then incubated with peroxidase-conjugated goat anti-mouse IgG secondary antibody, and detected using an ECL detection kit (Amersham).
Whether or not Pim-1 is degraded by proteases under normoxia was investigated. PCI-43 cells were cultured under hypoxia and normoxia. Cells cultured under hypoxia were sampled before culturing, and after culturing for 4, 12, and 24 hours. […]

[3] = tested on: PCI-43 cells; experiment: FACS analysis of apoptosis (PI / anti-anexin V staining) under hypoxia and normoxia; conditions: 50 μg/mL cisplatin, 12 and 24 hours
Experimental: as §1
(§2) The cells described above were stained with propidium iodide (PI) and FITC-conjugated anti-anexin V, and FACS analysis was performed using FACS calibur (Becton Dickinson).
In FIG. 1, “Normoxia” means under normal oxygen partial pressure, and “Hypoxia” means under low oxygen partial pressure (the same hereinafter). […]
PCI-43 cells were cultured for up to 24 hours under the same conditions as in Example 1. Samples obtained before culturing, and after culturing for 12 hours and 24 hours were analyzed as in Example 1. […]

[4] = tested on: PCI-35 cells, KMP-4 cells, and PCI-43 cells; experiment: FACS analysis of apoptosis (PI / anti-anexin V staining) under hypoxia and normoxia, three pancreatic cancer cell lines; conditions: 50 μg/mL cisplatin, six hours, PCI-35, KMP-4 and PCI-43 cells
Experimental: as §1, §2
In FIG. 1, “Normoxia” means under normal oxygen partial pressure, and “Hypoxia” means under low oxygen partial pressure (the same hereinafter). The FACS analyses in the Examples can be described as staining of cells with PI and anti-anexin V, and sorting of cells based on the intensity of staining to show distributions such as those in FIG. 1. […]

[5] = hypoxia (1% oxygen, 5% carbondioxide), read-out: IC50 (μM), Hypoxia
[6] = normoxia (20% oxygen, 5% carbondioxide), read-out: IC50 (μM), Normoxia

IC50 [1, 5] [µM] | IC50 [1, 6] [µM] | Structure (SMILES) | amount of Pim-1 (Western blotting) [2] | proportion of apoptotic cells under hypoxia compared with normoxia [3] | induction of apoptosis under normoxia compared with hypoxia [4]
1.56 | 0.272 | Nc1ccn([C@@H]2O[C@H](CO)[C@@H](O)C2(F)F)c(=O)n1 [Gemcitabine, gemcitabine] | – | – | –
1.9 | 0.3 | COc1cccc2c1C(=O)c1c(O)c3c(c(O)c1C2=O)C[C@@](O)(C(=O)CO)C[C@@H]3O[C@H]1C[C@H](N)[C@H](O)[C@H](C)O1 [Adriamycin, adriamycin] | – | – | –
– | – | CCCC[C@@H](C=O)NC(=O)[C@H](CC(C)C)NC(=O)[C@H](CC(C)C)NC(C)=O [ALLN, N-acetyl-L-leucinyl-L-leucinyl-L-norleucinal] (Ac-Leu-Leu-[Nle]-aldehyde) | the amount of Pim-1 also increased with time under normoxia | – | –

Structure (SMILES) | IC50 [1, 5] [µM] | IC50 [1, 6] [µM] | amount of Pim-1 (Western blotting) [2] | proportion of apoptotic cells under hypoxia compared with normoxia [3] | induction of apoptosis under normoxia compared with hypoxia [4]
N.N.[Cl][Pt][Cl] [Cisplatin, cisplatin] | 27.7 | 18.6 | – | approximately half that under normoxia | approximately twice that under hypoxia
